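Test compounds were applied to cells in 96-well plates for 48 hours at 5 doses. GI50: concentration for 50% inhibition of growth.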 The source made the active and inactive calls. Cut-off read from the data, not from the text of the source: active = GI50 up to about 1.1 µM and inactive = higher.
Tests used:
Test in all cases: NCI anticancer screen, dose series, 48 h
CAKI-1 = tested on: CAKI-1
CCRF-CEM = tested on: CCRF-CEM
EKVX = tested on: EKVX
HCC 2998 = tested on: HCC 2998
HT-29 = tested on: HT-29
M14 = tested on: M14
MOLT-4 = tested on: MOLT-4
OVCAR-4 = tested on: OVCAR-4
OVCAR-5 = tested on: OVCAR-5
OVCAR-8 = tested on: OVCAR-8
SF-539 = tested on: SF-539
SK-MEL-2 = tested on: SK-MEL-2
SK-OV-3 = tested on: SK-OV-3
SNB-19 = tested on: SNB-19
UO-31 = tested on: UO-31
SR = tested on: SR

Measured: GI50

CC(=O)NC(CCCN)C(=O)NCc1ccccc1 (stereo unspecified)
inactive: CAKI-1 > 100 µM | CCRF-CEM > 100 µM | EKVX > 100 µM | HCC 2998 > 100 µM | HT-29 > 100 µM | M14 > 100 µM | MOLT-4 > 100 µM | OVCAR-4 > 100 µM | OVCAR-5 > 100 µM | OVCAR-8 > 100 µM | SF-539 > 100 µM | SK-MEL-2 > 100 µM | SK-OV-3 > 100 µM | SNB-19 > 100 µM | UO-31 > 100 µM

Cc1ccc([N+](=O)[O-])cc1NC(=O)c1cccc([N+](=O)[O-])c1O
inactive: CAKI-1 17.8 µM | CCRF-CEM 18.2 µM | EKVX 21.2 µM | HT-29 20.1 µM | M14 16.8 µM | MOLT-4 15.6 µM | OVCAR-8 23 µM | SF-539 12.3 µM | SK-MEL-2 7.98 µM | SK-OV-3 17.1 µM | SNB-19 14.1 µM | UO-31 6.27 µM

COc1ccc(C(=O)Nc2ccn(CCOC(=O)c3ccc(OC)cc3)c(=O)n2)cc1
inactive: CAKI-1 > 100 µM | CCRF-CEM > 100 µM | EKVX > 100 µM | HT-29 > 100 µM | M14 > 100 µM | OVCAR-4 > 100 µM | OVCAR-5 > 100 µM | OVCAR-8 > 100 µM | SF-539 > 100 µM | SK-MEL-2 47.3 µM | SK-OV-3 > 100 µM | SR > 100 µM | UO-31 76.2 µM

CC(C)C1COC(C(C)(C)C2=N[C@@H](C(C)C)CO2)=N1 (stereo partly specified)
inactive: CCRF-CEM > 100 µM | EKVX > 100 µM | HCC 2998 > 100 µM | HT-29 > 100 µM | M14 > 100 µM | MOLT-4 > 100 µM | OVCAR-4 > 100 µM | OVCAR-5 > 100 µM | OVCAR-8 > 100 µM | SF-539 > 100 µM | SK-MEL-2 > 100 µM | SK-OV-3 > 100 µM | SNB-19 > 100 µM | SR > 100 µM | UO-31 > 100 µM

CC1=NN(C(=O)c2cc(Cl)cc([N+](=O)[O-])c2)C(=O)C1/N=N/c1ccccc1C(=O)O (stereo unspecified)
inactive: CAKI-1 > 100 µM | CCRF-CEM > 100 µM | EKVX > 100 µM | HCC 2998 > 100 µM | HT-29 > 100 µM | MOLT-4 > 100 µM | OVCAR-5 > 100 µM | OVCAR-8 > 100 µM | SF-539 > 100 µM | SK-MEL-2 > 100 µM | SK-OV-3 > 100 µM | SNB-19 > 100 µM | SR > 100 µM | UO-31 > 100 µM

CC1=C(C(=O)Nc2cc(F)c(F)cc2F)C(c2ccc(N(C)C)cc2)C(C(=O)Nc2cc(F)c(F)cc2F)=C(C)N1
inactive: CAKI-1 13.8 µM | CCRF-CEM 18.5 µM | EKVX 16 µM | HCC 2998 23.7 µM | HT-29 30.3 µM | M14 31.3 µM | MOLT-4 15.4 µM | OVCAR-4 17.7 µM | OVCAR-5 32.5 µM | OVCAR-8 29.6 µM | SF-539 18.2 µM | SK-MEL-2 28.8 µM | SK-OV-3 30.1 µM | SNB-19 38.7 µM | UO-31 17.1 µM

CC1CCc2c(sc3ncnc(N/N=C/c4ccc(Cl)cc4)c23)C1 (stereo unspecified)
inactive: CAKI-1 40.8 µM | CCRF-CEM > 10 µM | EKVX 20.1 µM | HCC 2998 48.1 µM | HT-29 38.5 µM | M14 28 µM | MOLT-4 20.6 µM | OVCAR-5 > 100 µM | OVCAR-8 31.4 µM | SF-539 > 10 µM | SK-MEL-2 48.8 µM | SK-OV-3 35.6 µM | SNB-19 30.1 µM | SR 21.6 µM | UO-31 4.78 µM

O=C(O)CCSC(=S)Nc1cccc(F)c1
inactive: CAKI-1 77.3 µM | EKVX 18.6 µM | HCC 2998 > 100 µM | HT-29 80 µM | M14 37.1 µM | MOLT-4 30 µM | OVCAR-4 92.3 µM | OVCAR-5 > 100 µM | OVCAR-8 37.8 µM | SF-539 26.1 µM | SK-OV-3 > 100 µM | SNB-19 45.2 µM | SR 39.2 µM | UO-31 > 100 µM

C=CCN1C(=O)CS/C1=N\NC(=O)c1c(C)nc2sccn12
inactive: CAKI-1 > 100 µM | CCRF-CEM > 100 µM | EKVX > 100 µM | HCC 2998 > 100 µM | HT-29 > 100 µM | MOLT-4 > 100 µM | OVCAR-5 > 100 µM | OVCAR-8 > 100 µM | SF-539 > 100 µM | SK-MEL-2 > 100 µM | SK-OV-3 > 100 µM | SNB-19 > 100 µM | SR > 100 µM

O=C(Nc1c(-c2nc3ccccc3[nH]2)sc(=S)n1-c1ccccc1)c1ccccc1
inactive: CAKI-1 > 100 µM | CCRF-CEM > 100 µM | EKVX > 100 µM | HCC 2998 > 100 µM | HT-29 > 100 µM | M14 > 100 µM | MOLT-4 > 100 µM | OVCAR-4 > 10 µM | OVCAR-5 > 100 µM | OVCAR-8 88.9 µM | SF-539 48.8 µM | SK-MEL-2 > 100 µM | SK-OV-3 > 100 µM | SNB-19 82 µM | UO-31 > 100 µM

CN(C)CCNC(=O)c1cccc2ccc(-c3cccnc3)nc12
inactive: CAKI-1 3.88 µM | CCRF-CEM 6.4 µM | EKVX 4.47 µM | HCC 2998 5.31 µM | HT-29 4.78 µM | M14 8.45 µM | MOLT-4 2.74 µM | OVCAR-4 8.24 µM | OVCAR-5 3.87 µM | OVCAR-8 4.3 µM | SF-539 11.4 µM | SK-MEL-2 8.57 µM | SK-OV-3 10.1 µM | SNB-19 4.14 µM | UO-31 1.98 µM

Cn1c(=O)c(NC(=O)C(Cl)(Cl)Cl)nc2ccccc21
inactive: CAKI-1 > 100 µM | CCRF-CEM > 100 µM | EKVX 54.5 µM | HCC 2998 > 100 µM | HT-29 > 100 µM | M14 > 100 µM | MOLT-4 > 100 µM | OVCAR-8 > 100 µM | SF-539 > 100 µM | SK-MEL-2 > 100 µM | SK-OV-3 > 100 µM | SNB-19 > 100 µM | UO-31 > 100 µM

Nc1nnc2nc(CC(=O)/C=C/c3ccccc3)c(=O)[nH]n12
inactive: CAKI-1 > 100 µM | CCRF-CEM > 100 µM | EKVX > 100 µM | HCC 2998 > 100 µM | HT-29 > 100 µM | M14 > 100 µM | MOLT-4 > 100 µM | OVCAR-4 > 100 µM | OVCAR-5 > 100 µM | OVCAR-8 > 100 µM | SF-539 > 100 µM | SK-MEL-2 > 100 µM | SK-OV-3 > 100 µM | SNB-19 > 100 µM | UO-31 > 100 µM

CC(=O)O[C@]12CCCCCCC1C1(O)C(O)CCC[C@H]12 (stereo partly specified)
inactive: CCRF-CEM > 100 µM | EKVX > 100 µM | HT-29 > 100 µM | M14 > 100 µM | MOLT-4 > 100 µM | OVCAR-4 > 100 µM | OVCAR-8 > 100 µM | SK-MEL-2 > 100 µM | SK-OV-3 > 100 µM | SNB-19 > 100 µM | SR > 100 µM | UO-31 > 100 µM

Source: ChEMBL document CHEMBL1201862, “PubChem BioAssay data set” (2004)
